Patent US20060078494A1, “Use of inhibitors of 24-hydroxylase in the treatment of cancer” (Sapphire Therapeutics, Inc., priority 2004, published 2006)

Assays:
[1] = system: C57BL6 murine ID8 ovarian carcinoma cell line; test: Mouse syngeneic model of ovarian carcinoma (ID8 VEGF164/GFP); assay type: in vivo, C57BL6 mice; settings: expected; for tumor growth delay compared with vehicle control: single agent (inhibitor 2 mg/kg; cisplatin 2 or 6 mg/kg)
Description: The efficacy of a 24-hydroxylase inhibitor, alone or in combination with a chemotherapeutic agent is tested in a mouse syngeneic model of ovarian carcinoma using methods as described in Zhang et al., (Am. J. of Pathol. (2002) 161:2295-2309). Briefly, using retroviral transfection and fluorescence-activated cell sorting, a C57BL6 murine ID8 ovarian carcinoma cell line is generated that stably overexpresses the murine VEGF164 isoform and the enhanced green fluorescence protein (GFP). The retroviral construct containing VEGF164 and GFP cDNAs is then transfected into BOSC23 cells. The cells are analyzed by FACS cell sorting, and cells showing high GFP fluorescence are identified and isolated. The ID8 VEGF164/GFP transfected cells are cultured to subconfluence and prepared in a single-cell suspension in phosphate buffer saline (PBS) and cold […] (BD Biosciences, Bedford, Mass.). Six to eight week old female C57BL6 mice are injected subcutaneously in the flank with 5×10^6 transfected or untransfected (control) cells. Animals are sacrificed eight weeks after inoculation and evaluated for tumor growth. Mice are treated with a 24-hydroxylase inhibitor (VID 400/RC-8800) beginning 3-14 days following tumor implantation. Mice are treated in the following groups, with 5 mice for each group:
The agents are administered on a daily basis for 14 days. Animals are monitored daily for body weight, and significant morbidity.

24-hydroxylase (CYP24) = molecular target: T1, 24-hydroxylase (CYP24) (Homo sapiens, UniProt Q07973); settings: identified by Schuster et al., J. Cell. Biochem. 88:372-380 (2003); cited from earlier work
T1 construct: confluent cultures of human keratinocytes are isolated from adult skin in serum-free keratinocyte growth medium; endogenous in cells; host or cells: primary human keratinocytes from adult skin
T1 sequence (Q07973 36-514): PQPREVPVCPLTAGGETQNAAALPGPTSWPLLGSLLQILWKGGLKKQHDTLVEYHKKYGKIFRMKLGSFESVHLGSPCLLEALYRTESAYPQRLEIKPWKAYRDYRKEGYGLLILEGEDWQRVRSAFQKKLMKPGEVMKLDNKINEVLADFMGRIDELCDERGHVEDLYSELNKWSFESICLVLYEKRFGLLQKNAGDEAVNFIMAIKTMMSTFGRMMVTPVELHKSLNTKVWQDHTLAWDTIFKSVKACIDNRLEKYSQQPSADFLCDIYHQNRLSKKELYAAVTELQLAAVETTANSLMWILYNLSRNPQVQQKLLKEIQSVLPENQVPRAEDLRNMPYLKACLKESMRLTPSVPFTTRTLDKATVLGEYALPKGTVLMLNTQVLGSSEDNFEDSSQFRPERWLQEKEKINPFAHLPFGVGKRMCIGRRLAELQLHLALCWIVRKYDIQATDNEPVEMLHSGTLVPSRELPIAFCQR

[2] = system: Human RL B-lymphoma cells; test: Human RL B-lymphoma cells in SCID mice; assay type: in vivo; settings: expected
Description: Human RL B-lymphoma cells (Beckwith et al. (1990) J. Nat. Cancer Inst. 82, 501) are maintained in vitro by passage in growth medium. The cells are washed thoroughly in PBS to remove culture components. SCID mice are injected with one million human lymphoma cells via the tail vein in 100 microliters (μl). 24-hydroxylase inhibitor treatment is initiated the following day by daily intraperitoneal (i.p.) injection of 3 mg/kg 24-hydroxylase inhibitor (VID400), alone or in combination with doxorubicin at 5 mg/kg, or vehicle. Mice are monitored for survival and significant morbidity. […] Depending on the lymphoma cell line employed, the untreated mice typically die within 3 to 6 weeks.

24-hydroxylase = molecular target: T2, 24-hydroxylase (Homo sapiens, UniProt Q07973); settings: described by Kahraman et al., J. Med. Chem. 47:6854-6863 (2004); cited from earlier work
T2 sequence (Q07973 36-514): T1 sequence (Q07973 36-514)

## O=C(NC[C@@H](c1ccccc1)n1ccnc1)c1ccc(-c2ccc(Cl)cc2)cc1 [(R)-VID400, 2-(R)-4′-Chlorobiphenyl-4-carboxylic acid (2-imidazol-1-yl-2-phenyl-ethyl)-amide]
[1]; 24-hydroxylase inhibitor 2 mg/kg + cisplatin 2 or 6 mg/kg, daily for 14 days, vs cisplatin alone at same dosage or inhibitor alone
  tumor growth delay: delay longer than cisplatin alone
[1]; 24-hydroxylase inhibitor 2 mg/kg + cisplatin, vs vehicle or single therapy controls of same dosage
  body weight: maintain body weight significantly more
[1]; daily for 14 days
  tumor growth delay compared with vehicle control: significant delay
24-hydroxylase (CYP24)
  inhibition of 24-hydroxylase: potent inhibitors
[2]; VID400 3 mg/kg i.p. daily in combination with doxorubicin 5 mg/kg
  inhibition in tumor growth: highest growth inhibition

## N.N.[Cl][Pt][Cl] [Cisplatin, reference compound]
[1]; daily for 14 days
  tumor growth delay compared with vehicle control: significant delay

## C=C1/C(=C\C=C2/CCCC3(C)C2CC[C@@H]3[C@H](C)CCS(=N)(=O)c2ccc(F)cc2)C[C@@H](O)C[C@@H]1O (stereo partly drawn) [Formula VI]
24-hydroxylase
  potency as 24-hydroxylase inhibitor (structure activity relationships): slightly less potent

## C=C1/C(=C\C=C2/CCCC3(C)C2CC[C@@H]3[C@H](C)CCS(=N)(=O)c2ccccc2)C[C@@H](O)C[C@@H]1O (stereo partly drawn) [Formula V]
24-hydroxylase
  potency as 24-hydroxylase inhibitor (structure activity relationships): most potent

## COc1cccc2c1C(=O)c1c(O)c3c(c(O)c1C2=O)C[C@@](O)(C(=O)CO)C[C@@H]3O[C@H]1C[C@H](N)[C@H](O)[C@H](C)O1 [doxorubicin, reference compound]
[2]; doxorubicin 5 mg/kg alone, SCID mice, RL B-lymphoma
  inhibition in tumor growth: significant inhibition
